Calls of active or inactive are those of the source. The rule behind the calls is not given here.
What was measured:
[1] = molecular target: Botulinum neurotoxin type A (Clostridium botulinum (strain Hall / ATCC 3502 / NCTC 13319 / Type A)) (UniProt P0DPI1); assay: Inhibition of Clostridium botulinum strain Hall A hyper botulinum neurotoxin type A1 in rat spinal cord cells assessed as intact SNAP25 protein level at 1 mM after 24 hrs by Western blot using monoclonal anti-SNAP25 antibody; type: cell-based
[2] = molecular target: Botulinum neurotoxin type A (Clostridium botulinum (strain Hall / ATCC 3502 / NCTC 13319 / Type A)) (UniProt P0DPI1); assay: Inhibition of Clostridium botulinum strain Hall A hyper botulinum neurotoxin type A1 in rat spinal cord cells assessed as intact SNAP25 protein level at 200 uM after 24 hrs by Western blot using monoclonal anti-SNAP25 antibody; type: cell-based

Sequence of Botulinum neurotoxin type A (Clostridium botulinum (strain Hall / ATCC 3502 / NCTC 13319 / Type A)) (P0DPI1 2-448 limits assumed): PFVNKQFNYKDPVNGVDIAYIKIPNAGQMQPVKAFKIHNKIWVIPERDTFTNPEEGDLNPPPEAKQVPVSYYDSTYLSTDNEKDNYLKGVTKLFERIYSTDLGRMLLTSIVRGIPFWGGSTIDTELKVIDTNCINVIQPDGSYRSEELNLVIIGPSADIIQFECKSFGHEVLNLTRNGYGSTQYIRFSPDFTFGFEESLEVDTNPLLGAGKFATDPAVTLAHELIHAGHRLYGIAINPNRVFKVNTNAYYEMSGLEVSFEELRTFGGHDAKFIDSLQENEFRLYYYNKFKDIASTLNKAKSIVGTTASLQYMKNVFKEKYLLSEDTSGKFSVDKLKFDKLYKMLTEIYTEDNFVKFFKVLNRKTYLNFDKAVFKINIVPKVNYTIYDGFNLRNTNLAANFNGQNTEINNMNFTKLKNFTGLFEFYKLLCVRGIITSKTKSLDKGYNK

Row | SMILES | inhibition [1] | inhibition [2]
1 | CC(=O)O[C@@H]1C[C@H](O)[C@]23CC[C@@H](O)C[C@H]2[C@H]1[C@H](O)OC3 | inactive | –
2 | CC(=O)O[C@@H]1C[C@H](O)[C@]23CC[C@H](O)C[C@H]2[C@H]1[C@H](O)OC3 | inactive | –
3 | CC(=O)O[C@@H]1C[C@H](O)[C@@]23CO[C@@H](O)[C@]1(C)[C@@H]2C[C@@H](O)[C@]1(C)[C@@H]3C(=O)[C@H](OC(C)=O)[C@@]2(C)[C@H](c3ccoc3)C[C@H]3O[C@]321 | – | Active

From ChEMBL document CHEMBL1159076, “Toosendanin: synthesis of the AB-ring and investigations of its anti-botulinum properties (Part II)” (Bioorg Med Chem, 2010)
